From patent US20040249122A1, “Cationic, amphipathic beta-sheet peptides and uses thereof” (priority 2003, published 2004)
Converted amounts (≈) assume the structure as drawn. Read-outs that look alike come from different tables or passages of the source. Where a SMILES comes first, the peptide text is derived from it. Where no end group is shown, it is not given here. The star is where a group is joined. Octanoyl = CCCCCCCC(=O)*

Experiments:
[1] = tested on: Escherichia coli (ATCC 25922); format: cell-based
Procedure: (§1) Antimicrobial and Hemolytic Assays. Antimicrobial susceptibility testing against Staphylococcus aureus (ATCC 29213), Escherichia coli (ATCC 25922), and Pseudomonas aeruginosa (ATCC 27853) was performed using a modification of the National Committee for Clinical Laboratory Standards microdilution broth assay (22). Mueller-Hinton broth (BBL) was used for diluting the peptide stock solution and for diluting the bacterial inoculum. The inoculum was prepared from mid-logarithmic phase cultures. […] The final concentration of peptide solution ranged-from 0.25 to 256 μg/mL in two-fold dilutions. The final concentration of bacteria in the wells was 5×10^5 CFU/mL. Peptides were tested in duplicate. In addition to the test peptide, three standard peptides and a non-treated growth control were included to validate the assay. The microtiter plates were incubated overnight at 37° C. and the absorbance was measured at 600 nm. […] After incubation at 37° C. for 30 min, the suspension was centrifuged at 10,000×g for 10 min and the absorbance at 400 nm was measured.

[2] = tested on: Staphylococcus aureus (ATCC 29213); format: cell-based
Procedure: as §1

[3] = tested on: Pseudomonas aeruginosa (ATCC 27853); format: cell-based
Procedure: as §1

[4] = tested on: E. coli, S. aureus, and P. aeruginosa; format: cell-based
Procedure: Antimicrobial and Hemolytic Assays. Antimicrobial susceptibility testing against Staphylococcus aureus (ATCC 29213), Escherichia coli (ATCC 25922), and Pseudomonas aeruginosa (ATCC 27853) was performed using a modification of the National Committee for Clinical Laboratory Standards microdilution broth assay (22). Mueller-Hinton broth (BBL) was used for diluting the peptide stock solution and for diluting the bacterial inoculum. The inoculum was prepared from mid-logarithmic phase cultures. Microtiter plate wells received aliquots-of 100 μL each of the inoculum and peptide dilution. The final concentration of peptide solution ranged-from 0.25 to 256 μg/mL in two-fold dilutions. The final concentration of bacteria in the wells was 5×10^5 CFU/mL. Peptides were tested in duplicate. In addition to the test peptide, three standard peptides and a non-treated growth control were included to validate the assay. The microtiter plates were incubated overnight at 37° C. and the absorbance was measured at 600 nm. […] Hemolysis at peptide concentrations of 500 μg/mL was determined using a 5% suspension of freshly drawn human erythrocytes, which had been washed twice in phosphate buffered saline. After incubation at 37° C. for 30 min, the suspension was centrifuged at 10,000×g for 10 min and the absorbance at 400 nm was measured. Complete hemolysis was determined by adding 0.2% Triton X-100 in place of the peptide.

[5] = Peptide-induced leakage from calcein-loaded LUV
Procedure: Peptide-Induced Leakage from Calcein-Loaded LUV. The ability of the peptides to release calcein (MW 623) from LUV of varying lipid composition was compared. LUV were prepared as above, except that-the buffer consisted of 50 mM HEPES, 100 mM NaCl, 0.3 mM EDTA, 80 mM calcein, pH 7.4. Calcein-loaded vesicles were separated from free calcein by size-exclusion chromatography using a Sephadex G-50 column and calcein-free buffer. Calcein leakage was monitored using a Perkin-Elmer LS-500 luminescence spectrometer by measuring the time-dependent increase in fluorescence of calcein (excitation=490 nm, emission=520 nm). LUV containing 8 nmoles of lipid were added to 1.5 mL of buffer in a stirred cuvet at 25° C. An aliquot of peptide was added to achieve the desired lipid-to-peptide ratio (256 to 8). Complete leakage was determined by the addition of 20 μL of 10% Triton X-100. Each value represents at least nine different measurements using at least three different LUV preparations.

Molecule | MIC E. coli ([1]; ATCC 25922) [µg/mL] | MIC Staph. aureus ([2]; ATCC 29213) [µg/mL] | MIC Pseud. aerug ([3]; ATCC 27853) [µg/mL] | antimicrobial activity (in words) [4] | also measured
CCCCCCCC(=O)N[C@@H](CCCCN)C(=O)N[C@@H](CC(C)C)C(=O)N[C@@H](CCCCN)C(=O)N[C@@H](Cc1c[nH]c2ccccc12)C(=O)N[C@@H](CCCCN)C(=O)N[C@@H](CC(C)C)C(=O)N[C@@H](CCCCN)C(=O)N[C@@H](CC(C)C)C(=O)N[C@@H](CCCCN)C(=O)N[C@@H](CC(C)C)C(=O)N[C@@H](CCCCN)C(N)=O [Oct-Beta-11, Oct- K L K W K L K L K L K-NH2] (Octanoyl-KLKWKLKLKLK-NH2) | 16 (≈ 10.3 µM) | 4 (≈ 2.58 µM) | 8 (≈ 5.16 µM) | reasonable antimicrobial activity | 
CC[C@H](C)[C@H](NC(=O)[C@H](C)NC(=O)CNC(=O)[C@H](CCCCN)NC(=O)[C@@H](NC(=O)[C@H](CCCCN)NC(=O)[C@@H](NC(=O)[C@H](C)NC(=O)CNC(=O)[C@H](CCCCN)NC(=O)[C@H](Cc1c[nH]c2ccccc12)NC(=O)[C@H](CCCCN)NC(=O)[C@@H](NC(=O)[C@H](C)NC(=O)CNC(=O)[C@H](CCCCN)NC(=O)[C@@H](NC(=O)[C@@H](N)CCCCN)[C@@H](C)CC)[C@@H](C)CC)[C@@H](C)CC)[C@@H](C)CC)C(N)=O [1,3-Hex, K I K G A I K W K G A I K I K G A I-NH2] (H-KIKGAIKWKGAIKIKGAI-NH2; N-terminus assumed) | 8 (≈ 4.16 µM) | 32 (≈ 16.6 µM) | 16 (≈ 8.32 µM) | appreciable antimicrobial activity | 
CC(C)C[C@H](NC(=O)CNC(=O)[C@H](CCCCN)NC(=O)[C@H](C)NC(=O)[C@H](CC(C)C)NC(=O)[C@H](CCCCN)NC(=O)[C@H](C)NC(=O)[C@H](CC(C)C)NC(=O)CNC(=O)[C@H](CCCCN)NC(=O)[C@H](C)NC(=O)[C@H](Cc1c[nH]c2ccccc12)NC(=O)[C@H](CCCCN)NC(=O)[C@H](C)NC(=O)[C@H](CC(C)C)NC(=O)CNC(=O)[C@H](CCCCN)NC(=O)[C@H](C)NC(=O)[C@H](CC(C)C)NC(=O)[C@@H](N)CCCCN)C(=O)N[C@@H](C)C(N)=O [1,4-Hept, KLAKGLAKWAKGLAKLAKGLA-NH2] (H-KLAKGLAKWAKGLAKLAKGLA-NH2; N-terminus assumed) | 8 (≈ 3.75 µM) | 8 to 16 | 32 (≈ 15 µM) | relatively low MIC values | 
CC[C@H](C)[C@H](NC(=O)[C@H](C)NC(=O)[C@H](CCCCN)NC(=O)CNC(=O)[C@@H](NC(=O)[C@H](CCCCN)NC(=O)[C@@H](NC(=O)[C@H](C)NC(=O)[C@H](CCCCN)NC(=O)CNC(=O)[C@H](Cc1c[nH]c2ccccc12)NC(=O)[C@H](CCCCN)NC(=O)[C@@H](NC(=O)[C@H](C)NC(=O)[C@H](CCCCN)NC(=O)CNC(=O)[C@@H](NC(=O)[C@@H](N)CCCCN)[C@@H](C)CC)[C@@H](C)CC)[C@@H](C)CC)[C@@H](C)CC)C(N)=O [1,4-Hex, K I G K A I K W G K A I K I G K A I-NH2] (H-KIGKAIKWGKAIKIGKAI-NH2; N-terminus assumed) | 32 (≈ 16.6 µM) | >256 | 64 (≈ 33.3 µM) |  | 
CC[C@H](C)[C@H](NC(=O)[C@H](CCCCN)NC(=O)[C@H](C)NC(=O)CNC(=O)[C@@H](NC(=O)[C@H](CCCCN)NC(=O)[C@@H](NC(=O)[C@H](CCCCN)NC(=O)[C@H](C)NC(=O)CNC(=O)[C@H](Cc1c[nH]c2ccccc12)NC(=O)[C@H](CCCCN)NC(=O)[C@@H](NC(=O)[C@H](CCCCN)NC(=O)[C@H](C)NC(=O)CNC(=O)[C@@H](NC(=O)[C@@H](N)CCCCN)[C@@H](C)CC)[C@@H](C)CC)[C@@H](C)CC)[C@@H](C)CC)C(N)=O [1,5-Hex, K I G A K I K W G A K I K I G A K I-NH2] (H-KIGAKIKWGAKIKIGAKI-NH2; N-terminus assumed) |  |  |  | appreciable antimicrobial activity | 
K I G A K S K H G A K I K I G A K I-NH2 (KIGAKSKHGAKIKIGAKI-NH2) [SH-KIGAKI] |  |  |  |  | calcein leakage from LUV (in words) ([5]; POPC (PC) LUV): low lytic activity; calcein leakage from LUV (in words) ([5]; POPC/POPG LUV, all ratios (1:1 to 4:1)): no ability to induce leakage; calcein leakage from LUV (in words) ([5]; any LUVs containing PE/PG): no ability to induce leakage
CCCCCCCC(=O)N[C@@H](CCCCN)C(=O)N[C@H](C(=O)NCC(=O)N[C@@H](C)C(=O)N[C@@H](CCCCN)C(=O)N[C@H](C(=O)N[C@@H](CCCCN)C(=O)N[C@H](C(=O)NCC(=O)N[C@@H](C)C(=O)N[C@@H](CCCCN)C(=O)N[C@H](C(=O)N[C@@H](CCCCN)C(=O)N[C@@H](Cc1c[nH]c2ccccc12)C(=O)NCC(=O)N[C@@H](C)C(=O)N[C@@H](CCCCN)C(=O)N[C@H](C(N)=O)[C@@H](C)CC)[C@@H](C)CC)[C@@H](C)CC)[C@@H](C)CC)[C@@H](C)CC [Oct-KIGAKI-18B, Oct- K I G A K I K I G A K I K W G A K I-NH2] (Octanoyl-KIGAKIKIGAKIKWGAKI-NH2) |  |  |  |  | MIC E. coli ([1]; Table 103): 8 µg/mL (≈ 3.9 µM); MIC Staph. aureus ([2]; Table 103): 8 µg/mL (≈ 3.9 µM); MIC Pseud. aerug ([3]; Table 103): 8 µg/mL (≈ 3.9 µM)
CCCCCCCC(=O)N[C@@H](CCCCN)C(=O)N[C@H](C(=O)NCC(=O)N[C@@H](C)C(=O)N[C@@H](CCCCN)C(=O)N[C@H](C(=O)N[C@@H](CCCCN)C(=O)N[C@@H](Cc1c[nH]c2ccccc12)C(=O)NCC(=O)N[C@@H](C)C(=O)N[C@@H](CCCCN)C(=O)N[C@H](C(=O)N[C@@H](CCCCN)C(=O)N[C@H](C(=O)NCC(=O)N[C@@H](C)C(=O)N[C@@H](CCCCN)C(=O)N[C@H](C(N)=O)[C@@H](C)CC)[C@@H](C)CC)[C@@H](C)CC)[C@@H](C)CC)[C@@H](C)CC [Oct-KIGAKI-18A, Oct- K I G A K I K W G A K I K I G A K I-NH2] (Octanoyl-KIGAKIKWGAKIKIGAKI-NH2) |  |  |  |  | MIC E. coli ([1]; Table 103): 8 µg/mL (≈ 3.9 µM); MIC Staph. aureus ([2]; Table 103): 4 µg/mL (≈ 1.95 µM); MIC Pseud. aerug ([3]; Table 103): 8 µg/mL (≈ 3.9 µM)
CC[C@H](C)[C@H](NC(=O)[C@H](C)NC(=O)CNC(=O)[C@@H](NC(=O)[C@H](CCCCN)NC(=O)[C@H](CCCCN)NC(=O)[C@@H](NC(=O)[C@H](C)NC(=O)CNC(=O)[C@H](Cc1c[nH]c2ccccc12)NC(=O)[C@H](CCCCN)NC(=O)[C@H](CCCCN)NC(=O)[C@@H](NC(=O)[C@H](C)NC(=O)CNC(=O)[C@@H](NC(=O)[C@@H](N)CCCCN)[C@@H](C)CC)[C@@H](C)CC)[C@@H](C)CC)[C@@H](C)CC)C(=O)N[C@@H](CCCCN)C(N)=O [1,6-Hex, K I G A I K K W G A I K K I G A I K-NH2] (H-KIGAIKKWGAIKKIGAIK-NH2; N-terminus assumed) | >256 | >256 | >256 |  | 
CC[C@H](C)[C@H](NC(=O)[C@H](C)NC(=O)CNC(=O)[C@@H](NC(=O)[C@H](CCCCN)NC(=O)[C@H](CCCCN)NC(=O)[C@@H](NC(=O)[C@H](C)NC(=O)CNC(=O)[C@H](Cc1c[nH]c2ccccc12)NC(=O)[C@H](CCCCN)NC(=O)[C@H](CCCCN)NC(=O)[C@@H](NC(=O)[C@H](C)NC(=O)CNC(=O)[C@@H](NC(=O)[C@H](CCCCN)NC(=O)[C@@H](N)CCCCN)[C@@H](C)CC)[C@@H](C)CC)[C@@H](C)CC)[C@@H](C)CC)C(N)=O [1,2-Hex, K K I G A I K K W G A J K K I G A I-NH2] (H-KKIGAIKKWGAIKKIGAI-NH2; N-terminus assumed) | 128 (≈ 66.6 µM) | >256 | 128 (≈ 66.6 µM) |  | 
